Measured values published in PubChem BioAssay AID1996.
≈ marks a conversion by molar mass, not a printed value.

conditions: buffer; pH 7.4; 200.0 µM

Compared with `Cn1cccc1C(=O)NC(=O)COC(=O)c1ccc(S(C)(=O)=O)cc1`, `COC(=O)c1ccc(CNC(=O)[C@@H]2CCCN2S(=O)(=O)c2ccccc2F)cc1` is 7-fold higher in solubility kinetic: 8.7 µg/mL (≈ 23.9 µM) for the first, 60.7 µg/mL (≈ 144 µM) for the second.

Going from `COCc1cc(C)nc(SCc2ccccc2Cl)c1C#N` to `COc1ccc(CC(=O)Nc2nc(C)cs2)cc1`, the solubility kinetic rises from 0.3 µg/mL (≈ 0.941 µM) to 27.2 µg/mL (≈ 104 µM) (91-fold).

First: CCCCON1C(=O)c2cccc3cccc(c23)C1=O
Second: CC(=O)c1c(Cl)nc2cccc3c2c1-c1ccccc1C3=O
The solubility kinetic of the first is higher: 8.8 µg/mL (≈ 32.7 µM) for the first, < 0.7 µg/mL for the second.

Compared with `NC1=C(Br)C(=O)c2ccccc2C1=O`, `CC(=O)Nc1ccc2c(c1)CCc1ccccc1-2` is 9.6-fold lower in solubility kinetic: 37.3 µg/mL (≈ 148 µM) for the first, 3.9 µg/mL (≈ 16.4 µM) for the second.

Compared with `Cc1cc(=O)oc2cc(NC(=O)c3ccc(OC(F)F)cc3)ccc12`, `CC(C)C(=O)Nc1ccc2oc(=O)ccc2c1` is 34-fold higher in solubility kinetic: 1 µg/mL (≈ 2.9 µM) for the first, 33.5 µg/mL (≈ 145 µM) for the second.

`O=c1c2ccccc2nc(-c2ccccc2)n1-c1ccccc1O` and `OCCNc1nc2ccccc2n1CC(O)c1ccccc1` (centres undefined) are within 1.5-fold of each other in solubility kinetic: 38.3 µg/mL (≈ 122 µM) for the first, 40.4 µg/mL (≈ 136 µM) for the second.

Compared with `O=C(O)CC(NC(=O)CCc1ccccc1)c1ccc(Cl)cc1` (centres undefined), `CC(=O)Nc1ccc(S(=O)(=O)NCCCc2ccccc2)cc1` is higher in solubility kinetic: 44.5 µg/mL (≈ 134 µM) for the first, > 49.9 µg/mL for the second.

First: Cc1nc(NC(=O)C2CCCCC2C(=O)O)sc1C (centres undefined)
Second: Cc1ccsc1C(=O)OCC(=O)NC1CCCCC1C (centres undefined)
The solubility kinetic of the first is 3.4-fold higher: 40.5 µg/mL (≈ 143 µM) for the first, 12 µg/mL (≈ 40.6 µM) for the second.

Going from `Nc1nc2c(s1)CCCCCCCCCC2` to `O=C(NNC(=O)c1ccco1)c1csc(N2CCOCC2)n1`, the solubility kinetic rises from 6.6 µg/mL (≈ 27.7 µM) to > 48.4 µg/mL.

Going from `Cc1scc(C(=O)N2CCN(c3ccc(Cl)cc3)CC2)c1C` to `Cc1cccc(N2CCN(C(=O)[C@H](C)N3C(=O)C4CC=CCC4C3=O)CC2)c1C` (some centres undefined), the solubility kinetic rises from 23.3 µg/mL (≈ 69.6 µM) to > 59.3 µg/mL.

First: CCN(CC)Cc1ccc(OC)c(Cl)c1.Cl
Second: CCN1CCN(S(=O)(=O)c2ccc(OC)c3ccccc23)CC1
The solubility kinetic of the first is higher: > 39.6 µg/mL for the first, 29.2 µg/mL (≈ 87.3 µM) for the second.

Compared with `C=CCn1c(NC(=O)c2ccc(C)cc2)nc2ccccc21`, `CCOC(=O)C(=O)N/N=C(/c1ccccc1)c1ccc(OC)cc1` is higher in solubility kinetic: < 0.2 µg/mL for the first, > 49 µg/mL for the second.

`COc1cccc(CC(=O)OCC(=O)NC2CCCC2)c1` and `O=C(COc1cccc(Cl)c1Cl)NC1CC1` cannot be ordered by solubility kinetic: > 43.7 µg/mL for the first, > 39 µg/mL for the second.

Going from `CCc1ccc(N2C(=O)C3CCCN3C2=S)cc1` (centres undefined) to `COc1ccc(N2C(=O)CSC2c2ccc(F)c(F)c2)cc1` (centres undefined), the solubility kinetic rises from 29.4 µg/mL (≈ 113 µM) to > 48.2 µg/mL.

`NC(=O)COC(=O)c1ccccc1OCc1ccc(Cl)cc1` and `CN(CC(=O)Nc1sccc1C(N)=O)S(=O)(=O)c1ccc(Cl)cc1` are within 1.5-fold of each other in solubility kinetic: 7.2 µg/mL (≈ 22.5 µM) for the first, 8.7 µg/mL (≈ 22.4 µM) for the second.

Compared with `O=C(N/C(=C/c1cccnc1)C(=O)N1CCOCC1)c1ccccc1F`, `O=C(Nc1cccc(S(=O)(=O)N2CCCCC2)c1)C1COc2ccccc2O1` (centres undefined) is lower in solubility kinetic: > 53.3 µg/mL for the first, 6.6 µg/mL (≈ 16.4 µM) for the second.

First: CC1CN(/C=C/C=O)C(C)CC1OC(=O)c1ccccc1 (centres undefined)
Second: CC1CN(C(=O)/C=C/c2ccccc2Cl)CC(C)O1 (centres undefined)
The solubility kinetic of the first is higher: > 43.1 µg/mL for the first, 36.5 µg/mL (≈ 130 µM) for the second.

Going from `COc1ccc(NC(=O)N2CCCc3ccccc32)cc1OC` to `COc1cccc(CNc2ccc(S(=O)(=O)N3CCCC3)cn2)c1`, the solubility kinetic falls from > 46.9 µg/mL to 46 µg/mL (≈ 132 µM).

First: O=C(CCCCCCC(=O)NCc1ccccc1)NCc1ccccc1
Second: N#CN=C(c1ccccc1)c1ccccc1
The solubility kinetic of the first is 22-fold lower: 1.4 µg/mL (≈ 3.97 µM) for the first, 30.4 µg/mL (≈ 147 µM) for the second.

`C/C(=N\Nc1nc(C)cc(C)n1)c1ccc(C)o1` and `COC(=O)c1scc(C)c1NS(=O)(=O)c1ccc(NC(C)=O)cc1` cannot be ordered by solubility kinetic: > 36.6 µg/mL for the first, > 55.3 µg/mL for the second.

Compared with `Nc1cc(-c2ccncc2)c[nH]c1=O`, `N/C(=N\OC(=O)c1cccc(C(F)(F)F)c1)c1cnccn1` is lower in solubility kinetic: > 28.1 µg/mL for the first, 2.4 µg/mL (≈ 7.74 µM) for the second.

`COC(=O)N1CCN(CCc2ccccc2)CC1` and `CN1CCC(CNC(=O)Nc2csc3ccccc23)CC1` cannot be ordered by solubility kinetic: > 37.2 µg/mL for the first, > 45.5 µg/mL for the second.

First: CC(C)(CCO)NC(=S)NC1CC2C=CC1C2 (centres undefined)
Second: C=CCOc1c(Cl)cc(C(=S)N2CCCC2)cc1OCC
The solubility kinetic of the first is higher: > 38.2 µg/mL for the first, 5.7 µg/mL (≈ 17.5 µM) for the second.

Going from `O=C(CSc1ncnc2ccccc12)N1CCNC1=O` to `Nc1nonc1OCCN1CCN(c2ccc([N+](=O)[O-])c3cccnc23)CC1`, the solubility kinetic falls from > 43.2 µg/mL to 9.1 µg/mL (≈ 23.6 µM).

In the case of `CCCC(=O)NC(c1ccc(C(C)C)cc1)c1ccc2cccnc2c1O` (centres undefined), the solubility kinetic is reported as < 0.4 µg/mL.
